The text below walks through data of ChEMBL document CHEMBL2169878 (J Med Chem, 2012).

The test system of data set [1] is Salmonella typhimurium. As to the kind of experiment: Mutagenicity against Salmonella typhimurium TA100 assessed as revertants at 1.5 uM incubated for 90 mins followed by drug washout measured after 2 days relative to positive control. Type of data set: toxicity, organism-based. The following applies: salmonella enterica subsp. enterica serovar typhimurium, 1.5 h.

Data set [2] relates to Salmonella typhimurium. As to the kind of experiment: Mutagenicity against Salmonella typhimurium TA98 assessed as revertants at 6 uM incubated for 90 mins followed by drug washout measured after 2 days relative to positive control. Type of data set: toxicity, organism-based. The following applies: salmonella enterica subsp. enterica serovar typhimurium, 1.5 h.
In data set [3] the test system is Salmonella typhimurium. As to the kind of experiment: Mutagenicity against Salmonella typhimurium TA100 assessed as revertants at 6 uM incubated for 90 mins followed by drug washout measured after 2 days relative to positive control. Type of data set: toxicity, organism-based. The following applies: salmonella enterica subsp. enterica serovar typhimurium, 1.5 h.

Data set [4] relates to Salmonella typhimurium. As to the kind of experiment: Mutagenicity against Salmonella typhimurium TA98 assessed as revertants at 50 uM incubated for 90 mins followed by drug washout measured after 2 days relative to positive control. Type of data set: toxicity, organism-based. The following applies: salmonella enterica subsp. enterica serovar typhimurium, 1.5 h.
Data set [5] addresses T1, Chloroquine resistance transporter (Plasmodium falciparum) (UniProt Q9N623).
T1 sequence (whole entry): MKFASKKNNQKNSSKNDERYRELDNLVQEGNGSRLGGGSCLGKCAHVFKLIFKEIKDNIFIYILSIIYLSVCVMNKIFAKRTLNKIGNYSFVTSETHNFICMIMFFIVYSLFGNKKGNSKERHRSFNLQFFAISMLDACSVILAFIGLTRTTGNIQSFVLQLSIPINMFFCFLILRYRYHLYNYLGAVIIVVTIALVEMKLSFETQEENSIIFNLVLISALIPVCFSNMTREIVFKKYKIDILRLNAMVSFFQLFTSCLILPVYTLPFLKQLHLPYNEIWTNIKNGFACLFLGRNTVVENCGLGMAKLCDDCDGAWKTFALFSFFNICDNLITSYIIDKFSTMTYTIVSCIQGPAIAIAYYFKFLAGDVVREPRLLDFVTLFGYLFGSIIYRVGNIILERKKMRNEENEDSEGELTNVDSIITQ
As to the kind of experiment: Inhibition of chloroquine-resistant Plasmodium falciparum Dd2 CRT expressed in Xenopus laevis oocyte assessed as inhibition of [3H]chloroquine uptake at 100 uM measured from 1 to 2 hrs.

A short description of data set [6]: Cytotoxicity against human HepG2 cells after 24 hrs by neutral red dye uptake assay. It is filed as cell-based. The following applies: read-out: TC50.
Data set [7] deals with Salmonella typhimurium. As to the kind of experiment: Mutagenicity against Salmonella typhimurium TA100 assessed as revertants at 25 uM incubated for 90 mins followed by drug washout measured after 2 days relative to positive control. It is filed as toxicity, organism-based. The following applies: salmonella enterica subsp. enterica serovar typhimurium.
Data set [8] deals with Plasmodium falciparum. As to the kind of experiment: Antiplasmodial activity against chloroquine-sensitive Plasmodium falciparum NF54 infected in human erythrocytes assessed as inhibition of [3H]hypoxanthine incorporation incubated for 48 hrs prior to [3H]hypoxanthine addition measured after 48 hrs by liquid scintillation counting. It is filed as functional, organism-based.

In data set [9] the test system is Salmonella typhimurium. As to the kind of experiment: Mutagenicity against Salmonella typhimurium TA98 assessed as revertants at 25 uM incubated for 90 mins followed by drug washout measured after 2 days relative to positive control. It is filed as toxicity, organism-based. The following applies: salmonella enterica subsp. enterica serovar typhimurium.
The subject of data set [10] is Salmonella typhimurium. As to the kind of experiment: Mutagenicity against Salmonella typhimurium TA98 assessed as revertants at 13 uM incubated for 90 mins followed by drug washout measured after 2 days relative to positive control. Conditions: salmonella enterica subsp. enterica serovar typhimurium, 1.5 h. Type of data set: toxicity, organism-based.
For data set [11], the system named is Plasmodium falciparum. As to the kind of experiment: Antiplasmodial activity against chloroquine-sensitive Plasmodium falciparum D10 infected in human RBC after 72 hrs by parasite lactate dehydrogenase assay. Type of data set: functional, organism-based. Conditions: D10, 72 h.
Data set [12] relates to Salmonella typhimurium. As to the kind of experiment: Mutagenicity against Salmonella typhimurium TA100 assessed as revertants at 3 uM incubated for 90 mins followed by drug washout measured after 2 days relative to positive control. It is filed as toxicity, organism-based. The following applies: salmonella enterica subsp. enterica serovar typhimurium, 1.5 h.
The test system of data set [13] is Plasmodium falciparum. As to the kind of experiment: Antiplasmodial activity against chloroquine-resistant Plasmodium falciparum W2 infected in human RBC after 72 hrs by parasite lactate dehydrogenase assay. Type of data set: functional, organism-based. The following applies: W2, 72 h.
In data set [14] the test system is Salmonella typhimurium. As to the kind of experiment: Mutagenicity against Salmonella typhimurium TA100 assessed as revertants at 50 uM incubated for 90 mins followed by drug washout measured after 2 days relative to positive control. It is filed as toxicity, organism-based. Conditions: salmonella enterica subsp. enterica serovar typhimurium.
Data set [15] concerns Plasmodium falciparum. As to the kind of experiment: Antiplasmodial activity against chloroquine-resistant Plasmodium falciparum K1 infected in human erythrocytes assessed as inhibition of [3H]hypoxanthine incorporation incubated for 48 hrs prior to [3H]hypoxanthine addition measured after 48 hrs by liquid scintillation counting. Type of data set: functional, organism-based.

A short description of data set [16]: Cytotoxicity against mouse NIH3T3 cells after 24 hrs by neutral red dye uptake assay. It is filed as cell-based. The following applies: read-out: TC50.
Data set [17] has as its system Salmonella typhimurium. As to the kind of experiment: Mutagenicity against Salmonella typhimurium TA98 assessed as revertants at 3 uM incubated for 90 mins followed by drug washout measured after 2 days relative to positive control. It is filed as toxicity, organism-based. The following applies: salmonella enterica subsp. enterica serovar typhimurium, 1.5 h.
The test system of data set [18] is Salmonella typhimurium. As to the kind of experiment: Mutagenicity against Salmonella typhimurium TA98 assessed as revertants at 1.5 uM incubated for 90 mins followed by drug washout measured after 2 days relative to positive control. Type of data set: toxicity, organism-based. The following applies: salmonella enterica subsp. enterica serovar typhimurium, 1.5 h.

Data set [19] concerns Salmonella typhimurium. As to the kind of experiment: Mutagenicity against Salmonella typhimurium TA100 assessed as revertants at 13 uM incubated for 90 mins followed by drug washout measured after 2 days relative to positive control. Type of data set: toxicity, organism-based. The following applies: salmonella enterica subsp. enterica serovar typhimurium.

Usually inhibition stands for the drop in the measured response relative to a control, in per cent. Usually IC50 stands for the concentration needed to halve the response being measured. On to `Fc1cc(C(Nc2ccnc3cc(Cl)ccc23)c2ccc(Cl)cc2)ccc1CN1CCCC1` (racemic), for which the Activity in the data set on Salmonella typhimurium [1] turned out to be 12%; in the data set on Salmonella typhimurium [2] it was 3%; with Salmonella typhimurium [3], 10%; with Salmonella typhimurium [4], 8%; in the data set with Salmonella typhimurium [7], 11%; in the data set with Salmonella typhimurium [9], 11%. In addition, the Activity in the data set with Salmonella typhimurium [10] came out at 3%; in the data set on Salmonella typhimurium [12], 10%; in the data set on Salmonella typhimurium [14], 11%; in the data set on Salmonella typhimurium [17], 5%; in the data set on Salmonella typhimurium [18] it was 4%; with Salmonella typhimurium [19], 11%. Besides, the inhibition in [5] came out at 70%. Besides, the CC50 at 24 h in [6] was determined as 12 µM; in [16], 25 µM. The IC50 was found to be 0.013 µM with Plasmodium falciparum [8], 0.059 µM in the data set with Plasmodium falciparum [11], 0.045 µM with Plasmodium falciparum [13] and 0.02 µM in the data set on Plasmodium falciparum [15].
